Results reported in article PMC6920806, “Synthesis of β-D-galactopyranoside-Presenting Glycoclusters, Investigation of Their Interactions with Pseudomonas aeruginosa Lectin A (PA-IL) and Evaluation of Their Anti-Adhesion Potential” (Biomolecules, 2019).

System: adhesion of P. aeruginosa (ST 1763) to epithelial bronchial cells (CuFi-1)
Assay: Ex vivo bacterial adherence assay, combination with compound 14
Format: cell-based, Pseudomonas aeruginosa
Conditions: 2 mM of the compound with compound 14 (250 μM); relative to untreated control
Procedure: Epithelial CuFi-1 cells (an immortalized epithelial cell line derived from cystic fibrosis human lungs, ATCC, Kielpin, Poland) were labelled with PKH67 (Fluorescent Cell Linker Kit, Sigma-Aldrich, St. Louis, MO, USA), a green fluorescent membrane marker, as follows. An aliquot of cell suspension containing 7 × 10^6 cells was washed with PBS buffer and centrifuged (100× g for 5 min). The cell pellet was resuspended in 250 µL of Diluent C (Fluorescent Cell Linker Kit, Sigma-Aldrich, St. Louis, MO, USA). Immediately, an equal volume of 8 µM PKH67 in Diluent C (2 µL of PKH67 in 248 µL of Diluent C) was added to the cell suspension. […]
Epithelial cells CuFi-1 stained with PKH67 were seeded at 8.4 × 10^4 cells/well onto 96-well plates (CellBIND® 96-well Flat Clear Bottom Black Polystyrene Microplates, Corning Incorporated, Corning, NY, USA) and incubated for 42–45 h at 37 °C, 5% CO2 to form a confluent monolayer and regenerate. […] The fluorescence of adhered P. aeruginosa cells (Ex 522 nm, Em 569 nm for PKH26) on epithelial cells (Ex 470 nm, Em 505 for PKH67) was quantified using the spectrofluorometer Tecan Infinite M200 Pro (Tecan Group Ltd., Männedorf, Switzerland). Results were expressed as a relative fluorescence ratio of P. aeruginosa/CuFi-1. […]

SMILES	P. aeruginosa adhesion, mixture with compound 14
COC(=O)c1cc(OCc2cn(CCn3cc(CO[C@@H]4O[C@H](CO)[C@H](O)[C@H](O)[C@H]4O)nn3)nn2)c(OCc2cn(CCn3cc(CO[C@@H]4O[C@H](CO)[C@H](O)[C@H](O)[C@H]4O)nn3)nn2)c(OCc2cn(CCn3cc(CO[C@@H]4O[C@H](CO)[C@H](O)[C@H](O)[C@H]4O)nn3)nn2)c1 [Compound 10]	approximately 22%
OC[C@H]1O[C@@H](OCc2cn(CCn3cc(COCC(COCc4cn(CCn5cc(CO[C@@H]6O[C@H](CO)[C@H](O)[C@H](O)[C@H]6O)nn5)nn4)(COCc4cn(CCn5cc(CO[C@@H]6O[C@H](CO)[C@H](O)[C@H](O)[C@H]6O)nn5)nn4)COCc4cn(CCn5cc(CO[C@@H]6O[C@H](CO)[C@H](O)[C@H](O)[C@H]6O)nn5)nn4)nn3)nn2)[C@H](O)[C@@H](O)[C@H]1O [Compound 13]	~23%
